This is an account of results in ChEMBL document CHEMBL4699525, “Design and synthesis of new indanol-1,2,3-triazole derivatives as potent antitubercular and antimicrobial agents” (Bioorg Med Chem Lett, 2020).

SMILES strings stand for the structures. In brackets after ≈: the same amount, converted by molar mass.

Data set [1] has as its system Aspergillus niger. Put plainly: Antifungal activity against Aspergillus niger assessed as inhibition of fungal growth incubated for 24 hrs by agar well diffusion method. In kind it is functional. (In agar diffusion tests the substance spreads into inoculated agar from a disc or well.)
Data set [2] has as its system Klebsiella aerogenes. The experiment in a line: Antibacterial activity against Enterobacter aerogenes assessed as inhibition of bacterial growth incubated for overnight by CLSI based method. In kind it is functional.
The target of data set [3] is T1, Enoyl-[acyl-carrier-protein] reductase [NADH] (Mycobacterium tuberculosis) (UniProt P9WGR1).
T1 sequence (whole entry): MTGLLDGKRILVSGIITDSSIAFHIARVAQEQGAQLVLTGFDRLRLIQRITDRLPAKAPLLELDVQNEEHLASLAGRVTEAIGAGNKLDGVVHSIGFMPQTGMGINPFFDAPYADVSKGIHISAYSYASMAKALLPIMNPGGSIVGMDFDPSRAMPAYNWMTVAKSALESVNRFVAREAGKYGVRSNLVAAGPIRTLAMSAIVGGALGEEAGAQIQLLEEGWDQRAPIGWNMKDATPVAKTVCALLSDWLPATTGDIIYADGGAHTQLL
Put plainly: Inhibition of InhA in Mycobacterium tuberculosis H37Rv assessed antitubercular activity by measuring inhibition of bacterial growth incubated for 7 days by MABA assay. Conditions: time 7.0 day. (The colour change of resazurin is a common sign of viable cells or microbes.)

The test system of data set [4] is Staphylococcus aureus. Put plainly: Antibacterial activity against Staphylococcus aureus assessed as inhibition of bacterial growth incubated for overnight by CLSI based method. Format: functional.
Data set [5] relates to Bacillus cereus. The experiment in a line: Antibacterial activity against Bacillus cereus assessed as inhibition of bacterial growth incubated for 24 hrs by agar well diffusion method. In kind it is functional.
In data set [6] the test system is Aspergillus niger. The experiment in a line: Antifungal activity against Aspergillus niger assessed as inhibition of […] growth incubated for overnight by CLSI based method. Format: functional.
Data set [7] is described as follows: Cytotoxicity against human HEK293 cells assessed as inhibition of cell growth at 25 uM incubated for 48 hrs by MTT assay. In kind it is cell-based. In general terms: Tetrazolium assays rely on reduction of a dye to a coloured formazan, in cell work by metabolically active cells.
In data set [8] the test system is Staphylococcus aureus. The experiment in a line: Antibacterial activity against Staphylococcus aureus assessed as inhibition of bacterial growth incubated for 24 hrs by agar well diffusion method. In kind it is functional.
Data set [9] deals with Salmonella enterica subsp. enterica serovar Abony. The experiment in a line: Antibacterial activity against Salmonella abony assessed as inhibition of bacterial growth incubated for 24 hrs by agar well diffusion method. Format: functional.
Data set [10] concerns Candida albicans. Put plainly: Antifungal activity against Candida albicans assessed as inhibition of fungal growth incubated for 24 hrs by agar well diffusion method. In kind it is functional.
Data set [11] relates to Escherichia coli. Put plainly: Antibacterial activity against Escherichia coli assessed as inhibition of bacterial growth incubated for 24 hrs by agar well diffusion method. Format: functional.
Data set [12] deals with Salmonella typhi. Put plainly: Antibacterial activity against Salmonella typhi assessed as inhibition of bacterial growth incubated for 24 hrs by agar well diffusion method. In kind it is functional, Salmonella enterica subsp. enterica serovar Typhi.
Data set [13] deals with Klebsiella aerogenes. The experiment in a line: Antibacterial activity against Enterobacter aerogenes assessed as inhibition of bacterial growth incubated for 24 hrs by agar well diffusion method. In kind it is functional.
For data set [14], the system named is Candida albicans. The experiment in a line: Antifungal activity against Candida albicans assessed as inhibition of […] growth incubated for overnight by CLSI based method. In kind it is functional.
For data set [15], the system named is Saccharomyces cerevisiae. The experiment in a line: Antifungal activity against Saccharomyces cerevisiae assessed as inhibition of […] growth incubated for overnight by CLSI based method. Format: functional.
In data set [16] the test system is Shigella boydii. The experiment in a line: Antibacterial activity against Shigella boydii assessed as inhibition of bacterial growth incubated for 24 hrs by agar well diffusion method. In kind it is functional.
The test system of data set [17] is Saccharomyces cerevisiae. Put plainly: Antifungal activity against Saccharomyces cerevisiae assessed as inhibition of fungal growth incubated for 24 hrs by agar well diffusion method. Format: functional.
The subject of data set [18] is Shigella boydii. Put plainly: Antibacterial activity against Shigella boydii assessed as inhibition of bacterial growth incubated for overnight by CLSI based method. Format: functional.
For data set [19], the system named is Pseudomonas aeruginosa. The experiment in a line: Antibacterial activity against Pseudomonas aeruginosa assessed as inhibition of bacterial growth incubated for 24 hrs by agar well diffusion method. In kind it is functional.
Data set [20] relates to Bacillus subtilis. The experiment in a line: Antibacterial activity against Bacillus subtilis assessed as inhibition of bacterial growth incubated for 24 hrs by agar well diffusion method. Format: functional.

Consider `COc1ccc(-n2cc(COc3ccc4c(c3)CCC4)nn2)cc1`, for which the “diameter of the inhibition zone (DIZ)” value turned out to be 6 mm in [1]; 5 mm in data set [5]; 8 mm in data set [8]; 12 mm in data set [9]; 11 mm in data set [10]; 10 mm in [11]. Further, the “diameter of the inhibition zone (DIZ)” value in data set [12] stood at 8 mm; in data set [13] it was 9 mm; in data set [16] it was 11 mm; in data set [17] it was 5 mm; in data set [19], 12 mm; in data set [20] it was 10 mm. Further, the MIC was found to be 130 µg/mL (≈ 405 µM) in data set [2]; 25 µM (≈ 8.03 µg/mL) in data set [3]; 160 µg/mL (≈ 498 µM) in data set [4]; 180 µg/mL (≈ 560 µM) in [6]; 80 µg/mL (≈ 249 µM) in data set [14]; 210 µg/mL (≈ 653 µM) in [15]. Also, the MIC in [18] worked out at 70 µg/mL (≈ 218 µM). Further, the inhibition (usually the share of the control response that was lost under treatment) at 48 h, 25 µM in [7] came out at 21.1%.
For the molecule `Cc1ccc(-n2cc(COc3ccc4c(c3)CCC4)nn2)c(C)c1`, the “diameter of the inhibition zone (DIZ)” value in [1] amounted to 10 mm; in data set [5] it was 10 mm; in [8], 7 mm; in data set [9], 9 mm; in data set [10], 11 mm; in [11], 12 mm. Besides, the “diameter of the inhibition zone (DIZ)” value in data set [12] is listed as 12 mm; in [13], 10 mm; in data set [16] it was 11 mm; in data set [17], 12 mm; in data set [19], 13 mm; in data set [20] it was 10 mm. The MIC in data set [2] is 75 µg/mL (≈ 235 µM); in data set [3], 1.56 µM (≈ 0.498 µg/mL); in data set [4], 150 µg/mL (≈ 470 µM); in data set [6] it was 70 µg/mL (≈ 219 µM); in data set [14] it was 60 µg/mL (≈ 188 µM); in data set [15], 50 µg/mL (≈ 157 µM). The MIC in data set [18] came to 55 µg/mL (≈ 172 µM). For the same molecule, the inhibition at 48 h, 25 µM in [7] came out at 19.9%.
